Numbered stars: 1 amine (or outer) side, 2 acyl side, 3 side chain; on linkers, the order of the positions; unused ones are H or OH. Square brackets hold non-standard residues; d marks the D form. Peptide text beside a SMILES is read from it. Gly(N-CH2CH2-imidazol-4-yl) = O=C(O)CNCCc1c[nH]cn1; X3 = C[C@@H](c1ccc2ccccc2c1)N(CC(=O)[*:2])[*:1]; N(1S-Me-propyl)Gly = CC[C@H](C)NCC(=O)O; X1 = CC(C)[C@H](C)N(CC(=O)[*:2])[*:1]; Nspe = C[C@H](NCC(=O)O)c1ccccc1; Nlys = NCCCCNCC(=O)O
How the values were obtained:
human erythrocytes = assay: Hemolysis assay; assay type: cell-based; details: for HD50 (50% hemolytic dose) / HD10 (10% hemolytic dose): red cells of human, 1 h
Procedure: Hemolysis assays. Erythrocytes were isolated from freshly drawn, heparanized human blood and resuspended to 20 vol % in PBS (pH 7.4). In a 96-well microtiter plate, 100 μL erythrocyte suspension was added to 100 μL peptoid solution in PBS (prepared by 1:2 serial dilutions), or 100 μL PBS in the case of negative controls. 100% hemolysis wells contained 100 μL blood cell suspension with 100 μL 0.2 vol % Triton X-100. The plate was incubated for 1 h at 37° C., then each well was diluted with 150 μL PBS. The plate was then centrifuged at 1200 g for 15 min, 100 μL of the supernatant from each well transferred to a fresh microtiter plate, and A350 measured.
Hemolysis assays. Erythrocytes were isolated from freshly drawn, heparanized human blood and resuspended in PBS (pH 7.4) to make a 20% volume suspension. Peptoid solutions were prepared by serial dilution (2:1) in a 96-well microtiter plate. For test wells, 100 μL of erythrocyte suspension was added to 100 μL of peptoid solution in PBS; PBS without peptoid was used as the negative control and 0.2 vol % Triton X-100 as the positive control that indicates 100% hemolysis. After 1 hour incubation at 37° C., each well was diluted with 150 μL PBS. Plates were then centrifuged at 1,200×g for 15 minutes to pellet the cells. 30 μL of the supernatant from each well were transferred to the corresponding well of a second 96-well plate that contains 70 μL PBS.

E. coli (ATCC 35218) = assay type: cell-based; details: ATCC 35218
Procedure: (§1) Whereas the preceding generation of molecules was designed to elucidate structure function relationships of specific molecular parameters (chirality, length, hydrophobicity, etc.), another generation compounds were designed explicitly to explore effects on selectivity. Antimicrobial activity of these compounds was tested against bacterial strains E. coli (ATTC 35218) and B. subtilis (ATTC 6633) in cation-adjusted MHB using the microdilution protocols previously described. The sequences, antimicrobial activities, hemolytic activities, and metabolic inhibitory concentrations against NIH 3T3 mouse fibroblast cells are summarized in Table 3 and the rationale of their design is described below.
(§2) The potencies of all compounds were determined against representative Gram-negative (E. coli ATCC 35218) and Gram-positive (B. subtilis ATCC 6633) biosafety level 1 (BSL1) organisms. In addition to hemolytic activity, the conventional measure of toxicity to mammalian cells, the effect of each ampetoid on NIH 3T3 mouse fibroblast cells was determined using the MTS tetrazolium salt-based calorimetric assay. While hemolysis measures the degree to which erythrocytes are lysed, the MTS assay indirectly quantifies the extent to which cellular metabolic activity is inhibited.
(§3) Screening antibacterial assays. MICs were determined in 96-well microtiter plates in accordance with CLSI M7-A6 protocols. Peptoid solutions with 50 μL total volume were prepared using 2:1 serial dilutions. 50 μL of bacteria inoculum (1×10^6 CFU/mL) prepared in cation-adjusted Mueller-Hinton broth (CAMHB) was added to test wells. Control wells contained 100 μL MHB (no growth) or 50 μL inoculums with 50 μL MHB with no peptoid. […] Reported values were reproducible over three experiments, each containing two parallel trials.

B. subtilis (ATCC 6633) = assay type: cell-based; details: ATCC 6633
Procedure: as §1, §2, §3

[1] = MTS assay, metabolic inhibition; assay type: cell-based, mouse
Procedure: as §2
MTS assays. NIH/3T3 cells (ATCC Corporation) cultured at 37° C. and 5% CO2 in complete Dulbecco's modified eagle's media (CDMEM) supplemented with 1% sodium pyruvate, 1% penicillin-streptomycin, 1.5 g/L NaHCO3, and 10% fetal bovine serum. Cells were seeded at a density of 5,000 cells per well for NIH/3T3 cells in 96-well plates (100 μl total volume). A peptoid solution plate (100 μL total volume per well) was prepared by serial dilution of aqueous peptoid stock solution in Hank's balanced salt solution (HBSS) media. The day-old cell monolayers were washed with HBSS and media was replaced with 100 μL HBSS. The contents of the peptoid solution plate were transferred onto corresponding wells of the cell monolayer plate, and 40 μL MTS reagent (Promega, Inc.) was added to each well. After incubating for 3 hours at 37° C., absorbance at 490 nm was determined. […] The average of six replicates is reported.

Row | IC50 [1] [µM] | Compound | HD50 (50% hemolytic dose) (human erythrocytes) | HD10 (10% hemolytic dose) (human erythrocytes) | HD10 (human erythrocytes) | HD50 (human erythrocytes) | also measured
1 |  | C[C@@H](c1ccccc1)N(CC(N)=O)C(=O)CN(C(=O)CN(CCC(=O)O)C(=O)CN(C(=O)CN(C(=O)CN(CCC(=O)O)C(=O)CN(C(=O)CN(C(=O)CN(CCC(=O)O)C(=O)CN(C(=O)CN(C(=O)CNCCC(=O)O)[C@@H](C)c1ccccc1)[C@@H](C)c1ccccc1)[C@@H](C)c1ccccc1)[C@@H](C)c1ccccc1)[C@@H](C)c1ccccc1)[C@@H](C)c1ccccc1)[C@@H](C)c1ccccc1 [1-Nglu1,4,7,10] | >110/>110 μM |  |  |  | 
2 |  | C[C@@H](c1ccccc1)N(CC(N)=O)C(=O)CN(C(=O)CN(CCC(=O)O)C(=O)CN(C(=O)CN(C(=O)CN(CCCCN)C(=O)CN(C(=O)CN(C(=O)CN(CCC(=O)O)C(=O)CN(C(=O)CN(C(=O)CNCCCCN)[C@@H](C)c1ccccc1)[C@@H](C)c1ccccc1)[C@@H](C)c1ccccc1)[C@@H](C)c1ccccc1)[C@@H](C)c1ccccc1)[C@@H](C)c1ccccc1)[C@@H](C)c1ccccc1 [1-Nglu4,10] | 40 µM | 19 µM |  |  | 
3 |  | C[C@@H](c1ccccc1)N(CC(=O)N(CCc1c[nH]cn1)CC(=O)N(CCCCN)CC(=O)N(CC(=O)N(CCc1c[nH]cn1)CC(=O)N(CCCCN)CC(=O)N(CC(=O)N(CCc1c[nH]cn1)CC(=O)N(CCCCN)CC(=O)N(CC(=O)N(CCc1c[nH]cn1)CC(N)=O)[C@@H](C)c1ccccc1)[C@@H](C)c1ccccc1)[C@@H](C)c1ccccc1)C(=O)CNCCCCN [1-Nhis3,6,9,12] (H-[Nlys][Nspe][Gly(N-CH2CH2-imidazol-4-yl)][Nlys][Nspe][Gly(N-CH2CH2-imidazol-4-yl)][Nlys][Nspe][Gly(N-CH2CH2-imidazol-4-yl)][Nlys][Nspe][Gly(N-CH2CH2-imidazol-4-yl)]-NH2) |  |  | >200/>200 μM | >200/>200 μM | E. coli MIC (E. coli (ATCC 35218)): >100 µM; B. subtilis MIC (B. subtilis (ATCC 6633)): 100 µM
4 | 19 | CC(C)[C@H](C)N(CC(=O)N(CCCCN)CC(=O)N(CC(=O)N(CC(=O)N(CCCCN)CC(=O)N(CC(=O)N(CC(=O)N(CCCCN)CC(=O)N(CC(=O)N(CC(N)=O)[C@@H](C)c1ccccc1)[C@@H](C)c1ccccc1)[C@@H](C)C(C)C)[C@@H](C)C(C)C)[C@@H](C)c1ccccc1)[C@@H](C)c1ccccc1)C(=O)CN(C(=O)CNCCCCN)[C@@H](C)C(C)C [1-Nsdp2,3,8,9, H-(Nlys-Nsdp-Nsdp-Nlys-Nspe-Nspe)2-NH2] (H-[Nlys][X1][X1][Nlys][Nspe][Nspe][Nlys][X1][X1][Nlys][Nspe][Nspe]-NH2) |  |  | 77 µM | > 200 µM | 
5 | 15 | C[C@@H](c1ccccc1)N(CC(N)=O)C(=O)CN(Cc1ccccc1)C(=O)CN(CCCCN)C(=O)CN(Cc1ccccc1)C(=O)CN(Cc1ccccc1)C(=O)CN(CCCCN)C(=O)CN(Cc1ccccc1)C(=O)CN(Cc1ccccc1)C(=O)CN(CCCCN)C(=O)CN(Cc1ccccc1)C(=O)CN(Cc1ccccc1)C(=O)CNCCCCN [1ach-Nspe12, H-(Nlys-Npm-Npm)3-(Nlys-Npm-Nspe)-NH2] |  |  | 164 µM | > 200 µM | B. subtilis MIC (B. subtilis (ATCC 6633)): 1.6 µM
6 |  | C[C@@H](c1ccccc1)N(CC(N)=O)C(=O)CN(C(=O)CN(C(=O)CN(C(=O)CN(C(=O)CN(C(=O)CN(C(=O)CN(C(=O)CN(CCCCN)C(=O)CN(CCCCN)C(=O)CN(CCCCN)C(=O)CNCCCCN)[C@@H](C)c1ccccc1)[C@@H](C)c1ccccc1)[C@@H](C)c1ccccc1)[C@@H](C)c1ccccc1)[C@@H](C)c1ccccc1)[C@@H](C)c1ccccc1)[C@@H](C)c1ccccc1 [1block, H-(Nlys)4-(Nspe)8-NH2] | 73 µM | 18 µM |  |  | 
7 | 8.5 | C[C@H](NCC(=O)N(CC(=O)N(CCCCN)CC(=O)N(CC(=O)N(CCCCN)CC(=O)N(CC(=O)N(CCCCN)CC(=O)N(CC(=O)N(CC(=O)N(CC(=O)N(CC(=O)N(CCCCN)CC(N)=O)[C@@H](C)c1ccccc1)[C@@H](C)c1ccccc1)[C@@H](C)c1ccccc1)[C@@H](C)c1ccccc1)[C@@H](C)c1ccccc1)[C@@H](C)c1ccccc1)[C@@H](C)c1ccccc1)c1ccccc1 [1scr, H-(Nspe)2-(Nlys-Nspe)3-(Nspe)3-Nlys-NH2] (H-[Nspe][Nspe][Nlys][Nspe][Nlys][Nspe][Nlys][Nspe][Nspe][Nspe][Nspe][Nlys]-NH2) |  |  | 64 µM | > 200 µM | 
8 |  | CC[C@H](C)N(CC(=O)N(CC(N)=O)[C@@H](C)c1ccc2ccccc2c1)C(=O)CN(CCCCN)C(=O)CN(C(=O)CN(C(=O)CN(CCCCN)C(=O)CN(C(=O)CN(C(=O)CN(CCCCN)C(=O)CN(C(=O)CN(C(=O)CNCCCCN)[C@@H](C)CC)[C@@H](C)c1ccccc1)[C@@H](C)CC)[C@@H](C)c1ccc2ccccc2c1)[C@@H](C)CC)[C@@H](C)c1ccccc1 [2-Nsna6,12] (H-[Nlys][N(1S-Me-propyl)Gly][Nspe][Nlys][N(1S-Me-propyl)Gly][X3][Nlys][N(1S-Me-propyl)Gly][Nspe][Nlys][N(1S-Me-propyl)Gly][X3]-NH2) | > 120 µM | 55 µM |  |  | 
9 |  | CC[C@H](C)N(CC(=O)N(CC(=O)N(CC(=O)N(CCCCN)CC(N)=O)[C@@H](C)c1ccccc1)[C@@H](C)CC)C(=O)CN(CCCCN)C(=O)CN(C(=O)CN(CCCCN)C(=O)CN(C(=O)CN(C(=O)CN(C(=O)CN(C(=O)CNCCCCN)[C@@H](C)CC)[C@@H](C)c1ccccc1)[C@@H](C)CC)[C@@H](C)c1ccccc1)[C@@H](C)c1ccccc1 [2scrambled, H-Nlys-Nssb-Nspe-Nssb-Nspe-Nlys-Nspe-Nlys-Nssb-Nssb-Nspe-Nlys-NH2] (H-[Nlys][N(1S-Me-propyl)Gly][Nspe][N(1S-Me-propyl)Gly][Nspe][Nlys][Nspe][Nlys][N(1S-Me-propyl)Gly][N(1S-Me-propyl)Gly][Nspe][Nlys]-NH2) | >120/>120 μM | >120/>120 μM |  |  | no hemolysis up to (human erythrocytes): > 120 µM
10 | 11 | C[C@@H](c1ccccc1)N(CC(N)=O)C(=O)CN(CCCCN)C(=O)CN(C(=O)CN(C(=O)CN(CCCCN)C(=O)CN(C(=O)CN(C(=O)CN(CCCCN)C(=O)CN(C(=O)CN(C(=O)CNCCCCN)[C@@H](C)c1ccccc1)[C@@H](C)c1ccccc1)[C@@H](C)c1ccccc1)[C@@H](C)c1ccccc1)[C@@H](C)c1ccccc1)[C@@H](C)c1ccccc1 [111mer, H-(Nlys-Nspe-Nspe)3-Nlys-Nspe-NH2] (H-[Nlys][Nspe][Nspe][Nlys][Nspe][Nspe][Nlys][Nspe][Nspe][Nlys][Nspe]-NH2) |  |  | 103 µM | > 200 µM | 
11 |  | CC[C@H](C)N(CC(=O)N(CC(N)=O)[C@@H](C)c1ccccc1)C(=O)CN(CCCCN)C(=O)CN(C(=O)CN(C(=O)CN(CCCCN)C(=O)CN(C(=O)CN(C(=O)CN(CCCCN)C(=O)CN(C(=O)CN(C(=O)CNCCCCN)[C@@H](C)CC)[C@@H](C)c1ccccc1)[C@@H](C)CC)[C@@H](C)c1ccccc1)[C@@H](C)CC)[C@@H](C)c1ccccc1 [compound 2, H-(Nlys-Nssb-Nspe)4-NH2] (H-[Nlys][N(1S-Me-propyl)Gly][Nspe][Nlys][N(1S-Me-propyl)Gly][Nspe][Nlys][N(1S-Me-propyl)Gly][Nspe][Nlys][N(1S-Me-propyl)Gly][Nspe]-NH2) | >120/>120 μM | >120/>120 μM |  |  | 
